Consider 3 compounds from patent US6504030B1, “Polymorphic form of clopidogrel hydrogen sulphate” (Sanofi-Synthelabo, priority 1998, dated 2003).

The conditions of data set [1]: compared with dextrorotatory isomer, per EP 281459; cited from earlier work.
In a further data set the test system is platelet aggregation. Conditions: enantiomers compared, per EP 281459; cited from earlier work.
The conditions of data set [2]: compared with Form 1.

Where a name gives a salt, the structure may show the parent alone.

Turning to `COC(=O)C(c1ccccc1Cl)N1CCc2sccc2C1` (single isomer, unassigned) [levorotatory isomer], the tolerance entry in data set [1] is reported as “less well tolerated”. The “platelet aggregation inhibiting activity” value with platelet aggregation is given as “less active”.
As to `COC(=O)[C@H](c1ccccc1Cl)N1CCc2sccc2C1.O=S(=O)(O)O` [Form 2, hydrogen sulfate of methyl (+)-(S)-α-(2-chlorophenyl)-4,5,6,7-tetrahydrothieno[3,2-c]pyridine-5-acetate], in data set [2], the “compactness of bulk solid” value is listed as “more compact” and the “electrostatic behaviour of bulk solid” value was “much less electrostatic than Form 1”.
With `COC(=O)[C@H](c1ccccc1Cl)N1CCc2sccc2C1` [clopidogrel hydrogen sulfate, hydrogen sulfate of methyl (+)-(S)-α-(2-chlorophenyl)-4,5,6,7-tetrahydrothieno[3,2-c]pyridine-5-acetate], the “platelet aggregation inhibiting activity” value in the data set with platelet aggregation was “excellent platelet aggregation inhibiting activity”.
